Reference: patent US9850251B2, “Imidazole derivative used as antiviral agent and use therof in preparation of medicament” (priority 2013, dated 2017)
pEC50: −log10 of the molar value.

What was measured:
[1] = RSV long CPE assay (cytopathic effect assay), CC50 toxicity in vitro; format: cell-based; details: human, Hep2 cells, CCK-8 readout, top concentration 100 μM
Protocol: (§1) Detect EC50 and CC50 values of anti RSV respiratory tract virus compounds through the cytopathic effect assay.
(§2) The cell plate was centrifugated (300 rpm) to make the cells adherent to the wall, placed into a 37° C., 5% CO2 incubator overnight.
(§3) 1) the compound in 100% DMSO underwent a semi logarithmic dilution, then was added to the cell plate with a Echo liquid handler. Ensure that the final concentration of DMSO was 1%;
(§4) 2) Cell-control hole: no compound and viruse were added; virus-control hole: no compound was added.
(§5) 2) add CCK-8 (Dojindo-CK04-20, 6 μL/hole) to 384 well plate with Multidrop® automatic liquid distributor;
(§6) 3) place the plate at a 37° C., 5% CO2 culture incubator for 3˜4 h, read the absorbance value with SPECTRA max 340PC_Molecular device at 450 nm and 630 nm;

[2] = test system: RSV respiratory tract virus (A long strain); assay: RSV long CPE assay (cytopathic effect assay), EC50; format: cell-based; details: human respiratory syncytial virus, HEp-2, 120 h; Hep2 cells infected with RSV A long strain, 5 days, CCK-8 readout
Protocol: as §1
Virus strain: RSV respiratory tract virus (A long strain)
as §2, §3, §4
dilute RSV viruses to 100 TCID50/30 μL with medium cultured with 4° C. cells, and then add the diluted viruses to a cell plate (30 μL/hole) with Multidrop® automatic liquid distributor, and then placed into a 37° C., 5% CO2 culture incubator for 5 days.
1) after 5 days, observe the pathological change in each hole.
as §5, §6

| SMILES | pEC50 [2] | CC50 at 5 days [1] [µM] | CC50 ([1]; 5 days) [µM] |
| --- | --- | --- | --- |
| CCOC(=O)N1CC2(C1)C(=O)N(Cc1nc(CC)c(CC)n1CCCCO)c1ccccc12 [Embodiment 101, Ethyl 1′-((4,5-diethyl-1-(4-hydroxybutyl)-1H-imidazol-2-yl)methyl)-2′-oxospiro[azetidine-3,3′-indoline]-1-carboxylate] |  | > 100 |  |
| CCOC(=O)N1CC2(C1)C(=O)N(Cc1nc3c(n1CCCC(F)(F)F)CCCC3)c1cnccc12 [Embodiment 87, Ethyl 2′-oxo-1′-((1-(4,4,4-trifluorobutyl)-4,5,6,7-tetrahydro-1H-benzo[d]imidazol-2-yl)methyl)-1′,2′-dihydrospiro[azetidine-3,3′-pyrrolo[2,3-c]pyridine]-1-carboxylate] | > 7.00 | > 100 |  |
| CC(C)OC(=O)N1CC2(C1)C(=O)N(Cc1nc3c(n1/C=C(\F)C(C)C)CCCC3)c1ccccc12 [Embodiment 70, Isopropyl (Z)-1′-((1-(2-fluoro-3-methylbut-1-en-1-yl)-4,5,6,7-tetrahydro-1H-benzo[d]imidazol-2-yl)methyl)-2′-oxospiro[azetidine-3,3′-indoline]-1-carboxylate] | > 7.00 | > 100 |  |
| Cc1nc(CN2C(=O)C3(CN(C(=O)OC(C)C)C3)c3ccccc32)n(CCCCO)c1C [Embodiment 100, Isopropyl 1′-((1-(4-hydroxybutyl)-4,5-dimethyl-1H-imidazol-2-yl)methyl)-2′-oxospiro[azetidine-3,3′-indoline]-1-carboxylate] | > 7.00 | > 100 |  |
| O=C1N(Cc2nc3c(n2CCCC(F)(F)F)CCCC3)c2ccccc2C12CN(S(=O)(=O)C1CC1)C2 [Embodiment 98, 1-(Cyclopropylsulfonyl)-1′-((1-(4,4,4-trifluorobutyl)-4,5,6,7-tetrahydro-1H-benzo[d]imidazol-2-yl)methyl)spiro[azetidine-3,3′-indoline]-2′-one] | > 7.00 | > 100 |  |
| CC(C)OC(=O)N1CC2(C1)C(=O)N(Cc1nc3c(n1CCCC(F)(F)F)C(=O)CCC3)c1ccccc12 [Embodiment 108, Isopropyl 2′-oxo-1′-((7-oxo-1-(4,4,4-trifluorobutyl)-4,5,6,7-tetrahydro-1H-benzo[d]imidazol-2-yl)methyl)spiro[azetidine-3,3′-indoline]-1-carboxylate] | 6.00 to 7.00 | > 100 |  |
| CC(C)OC(=O)N1CC2(C1)C(=O)N(Cc1nc3c(n1CCCC(F)(F)F)CCCC3)c1ccccc12 [Embodiment 65, Isopropyl 2′-oxo-1′-((1-(4,4,4-trifluorobutyl)-4,5,6,7-tetrahydro-1H-benzo[d]imidazol-2-yl)methyl)spiro[azetidine-3,3′-indoline]-1-carboxylate] | > 7.00 | > 100 |  |
| CC(C)OC(=O)N1CC2(C1)C(=O)N(Cc1nc3c(n1CCCC(F)(F)F)CCCC3)c1ccc(Cl)cc12 [Embodiment 80, Isopropyl 5′-chloro-2′-oxo-1′-((1-(4,4,4-trifluorobutyl)-4,5,6,7-tetrahydro-1H-benzo[d]imidazol-2-yl)methyl)spiro[azetidine-3,3′-indoline]-1-carboxylate] | > 7.00 | > 100 |  |
| O=C(C1CC1)N1CC2(C1)C(=O)N(Cc1nc3c(n1CCCC(F)(F)F)CCCC3)c1cc(F)ccc12 [Embodiment 84, 1-(Cyclopropanecarbonyl)-6′-fluoro-1′-((1-(4,4,4-trifluorobutyl)-4,5,6,7-tetrahydro-1H-benzo[d]imidazol-2-yl)methyl)spiro[azetidine-3,3′-indoline]-2′-one] | > 7.00 | > 100 |  |
| CC(C)OC(=O)N1CC2(C1)C(=O)N(Cc1nc3c(n1CCCC(F)(F)F)CCCC3)c1ccc(Br)cc12 [Embodiment 79, Isopropyl 5′-bromo-2′-oxo-1′-((1-(4,4,4-trifluorobutyl)-4,5,6,7-tetrahydro-1H-benzo[d]imidazol-2-yl)methyl)spiro[azetidine-3,3′-indoline]-1-carboxylate] | > 7.00 | > 100 |  |
| CC(C)OC(=O)N1CC2(C1)C(=O)N(Cc1nc3c(n1CCCCO)CCCC3)c1cccc(Cl)c12 [Embodiment 85, Isopropyl 4′-chloro-1′-((1-(4-hydroxybutyl)-4,5,6,7-tetrahydro-1H-benzo[d]imidazol-2-yl)methyl)-2′-oxospiro[azetidine-3,3′-indoline]-1-carboxylate] | > 7.00 |  | > 100 |
| CCOC(=O)N1CC2(C1)C(=O)N(Cc1nc3c(n1CCCC(F)(F)F)CCCC3)c1ccccc12 [Embodiment 75, Ethyl 2′-oxo-1′-((1-(4,4,4-trifluorobutyl)-4,5,6,7-tetrahydro-1H-benzo[d]imidazol-2-yl)methyl)spiro[azetidine-3,3′-indoline]-1-carboxylate] | > 7.00 | > 100 |  |
| CC(C)OC(=O)N1CC2(C1)C(=O)N(Cc1nc3c(n1CCCC(F)(F)F)CCCC3)c1cc(Cl)ccc12 [Embodiment 81, Isopropyl 6′-chloro-2′-oxo-1′-((1-(4,4,4-trifluorobutyl)-4,5,6,7-tetrahydro-1H-benzo[d]imidazol-2-yl)methyl)spiro[azetidine-3,3′-indoline]-1-carboxylate] | > 7.00 | > 100 |  |
| CC(C)OC(=O)N1CC2(C1)C(=O)N(Cc1nc3c(n1CCCC(F)(F)F)CCCC3)c1cccc(Cl)c12 [Embodiment 86, Isopropyl 4′-chloro-2′-oxo-1′-((1-(4,4,4-trifluorobutyl)-4,5,6,7-tetrahydro-1H-benzo[d]imidazol-2-yl)methyl)spiro[azetidine-3,3′-indoline]-1-carboxylate] | > 7.00 | > 100 |  |
| CC(C)OC(=O)N1CC2(C1)C(=O)N(Cc1nc3c(n1CC(F)(F)CCF)CCCC3)c1ccccc12 [Embodiment 66, Isopropyl 2′-oxo-1′-((1-(2,2,4-trifluorobutyl)-4,5,6,7-tetrahydro-1H-benzo[d]imidazol-2-yl)methyl)spiro[azetidine-3,3′-indoline]-1-carboxylate] | > 7.00 | > 100 |  |
| O=C(C(F)F)N1CC2(C1)C(=O)N(Cc1nc3c(n1CCCC(F)(F)F)CCCC3)c1ccccc12 [Embodiment 96, 1-(2,2-Difluoroacetyl)-1′-((1-(4,4,4-trifluorobutyl)-4,5,6,7-tetrahydro-1H-benzo[d]imidazol-2-yl)methyl)spiro[azetidine-3,3′-indoline]-2′-one] | > 7.00 | > 100 |  |
| CC(C)C(=O)N1CC2(C1)C(=O)N(Cc1nc3c(n1CCCC(F)(F)F)CCC3)c1ccccc12 [Embodiment 105, 1-Isobutyryl-1′-((1-(4,4,4-trifluorobutyl)-1,4,5,6-tetrahydrocyclopenta[d]imidazol-2-yl)methyl)spiro[azetidine-3,3′-indoline]-2′-one] | > 7.00 | > 100 |  |

More lines, main results first:

| pEC50 [2] | SMILES | CC50 at 5 days [1] [µM] | CC50 ([1]; 5 days) [µM] |
| --- | --- | --- | --- |
| 6.00 to 7.00 | CC(C)OC(=O)N1CC2(C1)C(=O)N(Cc1nc3c(n1CC(=O)C(C)C)CCCC3)c1ccccc12 [Embodiment 68, Isopropyl 1′-((1-(3-methyl-2-oxobutyl)-4,5,6,7-tetrahydro-1H-benzo[d]imidazol-2-yl)methyl)-2′-oxospiro[azetidine-3,3′-indoline]-1-carboxylate] | > 100 |  |
| 6.00 to 7.00 | CCOC(=O)N1CC2(C1)C(=O)N(Cc1nc3c(n1CCCC(F)(F)F)CCCC3C)c1ccccc12 (centres unmarked) [Embodiment 110, Ethyl 1′-((4-methyl-1-(4,4,4-trifluorobutyl)-4,5,6,7-tetrahydro-1H-benzo[d]imidazol-2-yl)methyl)-2′-oxospiro[azetidine-3,3′-indoline]-1-carboxylate] | > 100 |  |
| > 7.00 | O=C(C1CC1)N1CC2(C1)C(=O)N(Cc1nc3c(n1CCCC(F)(F)F)CCCC3)c1cnccc12 [Embodiment 89, 1-(Cyclopropanecarbonyl)-1′-((1-(4,4,4-trifluorobutyl)-4,5,6,7-tetrahydro-1H-benzo[d]imidazol-2-yl)methyl)spiro[azetidine-3,3′-pyrrolo[2,3-c]pyridine]-2′(1′H)-one] | > 100 |  |
| > 7.00 | O=C(C1CC1)N1CC2(C1)C(=O)N(Cc1nc3c(n1CCCC(F)(F)F)CCCC3)c1ccccc12 [Embodiment 93, 1-(Cyclopropanecarbonyl)-1′-((1-(4,4,4-trifluorobutyl)-4,5,6,7-tetrahydro-1H-benzo[d]imidazol-2-yl)methyl)spiro[azetidine-3,3′-indoline]-2′-one] | > 100 |  |
| > 7.00 | CC1(C(=O)N2CC3(C2)C(=O)N(Cc2nc4c(n2CCCC(F)(F)F)CCCC4)c2ccccc23)CC1 [Embodiment 91] | > 100 |  |
| > 7.00 | CCOC(=O)N1CC2(C1)C(=O)N(Cc1nc3c(n1CCC(C)C)CCCC3)c1ccccc12 [Embodiment 72, Ethyl 1′-((1-isopentyl-4,5,6,7-tetrahydro-1H-benzo[d]imidazol-2-yl)methyl)-2′-oxospiro[azetidine-3,3′-indoline]-1-carboxylate] | > 100 |  |
| 6.00 to 7.00 | CC(C)=C(F)Cn1c(CN2C(=O)C3(CN(C(=O)OC(C)C)C3)c3ccccc32)nc2c1CCCC2 [Embodiment 71, Isopropyl 1′-((1-(2-fluoro-3-methylbut-2-en-1-yl)-4,5,6,7-tetrahydro-1H-benzo[d]imidazol-2-yl)methyl)-2′-oxospiro[azetidine-3,3′-indoline]-1-carboxylate] | > 100 |  |
